{"source": "patent US6653294B2", "about": "“Use of chitinous materials for inhibiting cellular nitric oxide production” (Food Industry Research & Development Institute, priority 2000, dated 2003)", "key": {"[1]": {"test_system": "activated RAW 264.7 cells", "test": "Measurement of NO production via nitrite detection (Griess) in IFN-γ and LPS activated RAW 264.7 cells", "type": "cell-based, mouse", "conditions": "for Nitrite Production / Nitrite Production as Percentage of Control: IFN-γ + LPS; for Effect on NO production, in words (Table 2): conditions of Table 2 (2 and 10 μg/ml)", "description": "(§1) NIH/3T3 (mouse embryo fibroblast, CCRC 60008) and RAW 264.7 (mouse monocyte/macrophage, CCRC 60001) cell lines were obtained from Culture Collection and Research Center (CCRC), Taiwan. Both cell lines were cultured in Dulbecco's modified essential medium (DMEM, GIBCO BRL, Rockville, Md.) containing 1.5 g/L NaHCO3 supplemented with 10% fetal bovine serum (Hyclone, Logan, Utah) and incubated in 5% CO2 at 37° C. Cell cultures were examined for mycoplasma contamination with the fluorescent stain Hoechst 33258 (Hay et al., ATCC Quality Control Methods for Cell Lines, American Type Culture Collection, Manassas, Va., 1992, pp 23-33). All cultures described in the present example were mycoplasma-free.\nTwo mixtures were prepared. A mixture of collagen type I (rat tail, Sigma, St. Louis, Mo.) was dissolved in 0.1 N acetic acid to produce a 1 mg/ml collagen solution. Chitin was added to 0.1 N acetic acid until a 1 mg/ml mixture was achieved, and the mixture was sonicated for 3 minutes using a Labsonic U sonicator, (Braun Biotech International, Germany). After being autoclaved at 121° C. for 15 minutes, the chitin mixture became a slurry of fine wires. Microtiter tissue culture plates (96-well) were rinsed with Dulbecco's phosphate-buffer saline without Ca^+2 and Mg^+2 (D-PBS, GIBCO BRL). Five microliters of collagen solution or different amounts of the chitin mixture were then added to each well. The plates were then air-dried in a laminar flow hood and stored at 4° C. for up to a week.\nNitric oxide (NO) production was indirectly quantified by measuring the accumulation of nitrite (NO2^−) in the culture media using Griess reagents and sodium nitrite as a standard (Green et al., Anal. Biochem. 126:131-138, 1982; and Ignarro et al., Proc. Natl. Acad. Sci. USA 90:8103-8107, 1993). For nitrite assays, RAW 264.7 cells were subcultured in coated 96-well tissue culture plates at 1×10^5 cells/well and incubated for 24 hours. The culture media were changed to phenol red-free, serum-free DMEM containing 100 U/ml interferon-γ(IFN-γ, recombinant murine; GIBCO BRL) and 100 ng/ml lipopolysaccharide (LPS, Escherichia coli serotype 0128:B12; Sigma). The samples were then tested as described in Rollo et al., J. Leukoc. Biol. 60:397-404, 1996.\nTo measure the effect of chitin on NO production, cells were subcultured directly in the chitin-coated 96-well tissue culture plates. After overnight incubation, cells became adhered to the bottom of chitin-coated wells. The culture media were removed and replaced with media supplemented with IFN-γ and LPS as described above. After 48 hours incubation, […] of culture supernatants were mixed sequentially with equal volumes of 60 mM sulfanilamide (Sigma) in 3 N HCl and 4 mM N-1-naphthylethylenediamine (Sigma) and then shaken for 5 minutes at room temperature as described in Rollo et al., supra. Nitrite concentration was measured by reading the sample's absorbance at 540 nm using a microplate reader (MRX, Dynex Technologies, Inc., VA)."}, "RAW 264.7 cells": {"test_system": "RAW 264.7 cells", "test": "Cytotoxicity test (MTT cell growth), RAW 264.7", "type": "cell-based, mouse", "description": "as §1\nTwo mixtures were prepared. […]\nFor chitin cytotoxicity experiment, cells were subcultured in 96-well tissue culture plates precoated with different amount of chitin or with collagen at a density of 2000 cells/well and incubated for 48 hours. […] Cytotoxicity was measured using the dye 3-(4,5-dimethylthiazol-2-yl)-2,5-diphenyl tetrazolium bromide (MTT; Merck Co., Germany) and following the methods described in Mosmann, J. Immunol. […]\nThe cytotoxicity associated with chitin and chitosan was evaluated for both mouse embryonic fibroblast NIH/3T3 cells and mouse monocyte-macrophage RAW 264.7 cells. […]"}, "[2]": {"conditions": "5 μl per well (1 mg/ml) coated, 48 hours"}}, "data": [{"compound": "CC(=O)N[C@H]1C(O)O[C@H](CO)[C@@H](O)[C@@H]1O", "note": "(stereo partly shown) [NAGA, N-acetylglucosamine, reference compound]", "values": [{"measurement": "Nitrite Production", "setting": "[1]; 10 μg/ml in culture medium", "value": "66.7 ± 0.9", "unit": "µM"}, {"measurement": "Nitrite Production as Percentage of Control", "setting": "[1]; 10 μg/ml in culture medium", "value": 102, "unit": "%"}, {"measurement": "Cytotoxicity (MTT)", "setting": "RAW 264.7 cells", "value": "not cytotoxic"}]}, {"compound": "CC(=O)N[C@H]1[C@H](O[C@H]2[C@H](O)[C@@H](NC(C)=O)C(O)O[C@@H]2CO)O[C@H](CO)[C@@H](O)[C@@H]1O", "note": "(stereo partly drawn) [chitobiose, 2-acetamido-2-deoxy-4-O-(2-acetamido-2-deoxy-b-D-glucopyranosyl)-D-glucopyranose]", "values": [{"measurement": "Nitrite Production", "setting": "[1]; 2 μg/ml in culture medium", "value": "64.9 ± 0.8", "unit": "µM"}, {"measurement": "Nitrite Production as Percentage of Control", "setting": "[1]; 2 μg/ml in culture medium", "value": 98.9, "unit": "%"}, {"measurement": "Nitrite Production", "setting": "[1]; 10 μg/ml in culture medium", "value": "64.1 ± 0.9", "unit": "µM"}, {"measurement": "Nitrite Production as Percentage of Control", "setting": "[1]; 10 μg/ml in culture medium", "value": 97.7, "unit": "%"}]}, {"compound": "CC(=O)N[C@H]1[C@H](O[C@H]2[C@H](O)[C@@H](NC(C)=O)[C@H](O[C@H]3[C@H](O)[C@@H](NC(C)=O)C(O)O[C@@H]3CO)O[C@@H]2CO)O[C@H](CO)[C@@H](O[C@@H]2O[C@H](CO)[C@@H](O[C@@H]3O[C@H](CO)[C@@H](O[C@@H]4O[C@H](CO)[C@@H](O)[C@H](O)[C@H]4NC(C)=O)[C@H](O)[C@H]3NC(C)=O)[C@H](O)[C@H]2NC(C)=O)[C@@H]1O", "note": "(stereo partly shown) [chitohexose]", "values": [{"measurement": "Nitrite Production", "setting": "[1]; 2 μg/ml in culture medium", "value": "41.3 ± 0.8", "unit": "µM"}, {"measurement": "Nitrite Production as Percentage of Control", "setting": "[1]; 2 μg/ml in culture medium", "value": 63, "unit": "%"}, {"measurement": "Nitrite Production", "setting": "[1]; 10 μg/ml in culture medium", "value": "35.8 ± 2.9", "unit": "µM"}, {"measurement": "Nitrite Production as Percentage of Control", "setting": "[1]; 10 μg/ml in culture medium", "value": 54.5, "unit": "%"}, {"measurement": "Effect on NO production, in words (Table 2)", "setting": "[1]", "value": "did substantially decrease NO production"}]}, {"compound": "CC(=O)N[C@@H]1[C@@H](O)[C@H](O[C@@H]2O[C@H](CO)[C@@H](O[C@@H]3O[C@H](CO)[C@@H](O[C@@H]4O[C@H](CO)[C@@H](O[C@@H]5O[C@H](CO)[C@@H](O)[C@H](O)[C@H]5NC(C)=O)[C@H](O)[C@H]4NC(C)=O)[C@H](O)[C@H]3NC(C)=O)[C@H](O)[C@H]2NC(C)=O)[C@@H](CO)O[C@H]1O", "note": "[chitopentose]", "values": [{"measurement": "Nitrite Production", "setting": "[1]; 2 μg/ml in culture medium", "value": "47.0 ± 0.5", "unit": "µM"}, {"measurement": "Nitrite Production as Percentage of Control", "setting": "[1]; 2 μg/ml in culture medium", "value": 70.6, "unit": "%"}, {"measurement": "Nitrite Production", "setting": "[1]; 10 μg/ml in culture medium", "value": "42.7 ± 1.2", "unit": "µM"}, {"measurement": "Nitrite Production as Percentage of Control", "setting": "[1]; 10 μg/ml in culture medium", "value": 65.1, "unit": "%"}, {"measurement": "Effect on NO production, in words (Table 2)", "setting": "[1]", "value": "did substantially decrease NO production"}]}, {"compound": "CC(=O)N[C@H]1[C@H](O[C@H]2[C@H](O)[C@@H](NC(C)=O)C(O)O[C@@H]2CO)O[C@H](CO)[C@@H](O[C@@H]2O[C@H](CO)[C@@H](O)[C@H](O)[C@H]2NC(C)=O)[C@@H]1O", "note": "(stereo partly shown) [chitotriose]", "values": [{"measurement": "Nitrite Production", "setting": "[1]; 2 μg/ml in culture medium", "value": "61.5 ± 0.9", "unit": "µM"}, {"measurement": "Nitrite Production as Percentage of Control", "setting": "[1]; 2 μg/ml in culture medium", "value": 93.8, "unit": "%"}, {"measurement": "Nitrite Production", "setting": "[1]; 10 μg/ml in culture medium", "value": "61.1 ± 0.2", "unit": "µM"}, {"measurement": "Nitrite Production as Percentage of Control", "setting": "[1]; 10 μg/ml in culture medium", "value": 93.1, "unit": "%"}]}, {"compound": "N[C@H]1C(O)O[C@H](CO)[C@@H](O)[C@@H]1O", "note": "(stereo partly shown) [glucosamine, reference compound]", "values": [{"measurement": "Nitrite Production", "setting": "[1]; 10 μg/ml in culture medium", "value": "64.3 ± 0.8", "unit": "µM"}, {"measurement": "Nitrite Production as Percentage of Control", "setting": "[1]; 10 μg/ml in culture medium", "value": 98.0, "unit": "%"}, {"measurement": "Cytotoxicity (MTT)", "setting": "RAW 264.7 cells", "value": "not cytotoxic"}]}, {"compound": "Collagen: collagen type I (rat tail, Sigma), coating comparison [reference compound]", "values": [{"measurement": "Nitrite Production", "setting": "[1]; [2]", "value": "73.4 ± 0.9", "unit": "µM"}, {"measurement": "Nitrite Production as Percentage of Control", "setting": "[1]; [2]", "value": 99, "unit": "%"}, {"measurement": "Effect on NO production, in words (Table 1)", "setting": "[1]; conditions of Table 1", "value": "did not significantly affect NO production"}]}, {"compound": "chitotetraose", "values": [{"measurement": "Nitrite Production", "setting": "[1]; 2 μg/ml in culture medium", "value": "63.4 ± 0.5", "unit": "µM"}, {"measurement": "Nitrite Production as Percentage of Control", "setting": "[1]; 2 μg/ml in culture medium", "value": 96.6, "unit": "%"}, {"measurement": "Nitrite Production", "setting": "[1]; 10 μg/ml in culture medium", "value": "61.3 ± 0.6", "unit": "µM"}, {"measurement": "Nitrite Production as Percentage of Control", "setting": "[1]; 10 μg/ml in culture medium", "value": 93.4, "unit": "%"}]}]}
